The results in this text go back to ChEMBL document CHEMBL6134833, “Recent advances in CDC7 kinase inhibitors: Novel strategies for the treatment of cancers and neurodegenerative diseases” (Eur J Med Chem, 2025).

Data set [1] can be described thus: Metabolic stability in human liver microsome assessed as microsomal clearance. The settings on record: microsomes. The format is ADME.
The nature of data set [2]: Metabolic stability in rat liver microsome assessed as microsomal clearance. It counts as ADME. The settings on record: microsomes. In general terms: Liver microsomes are vesicles of endoplasmic reticulum, rich in cytochrome P450 enzymes.
The target of a further data set is CDK3/Cyclin E (Homo sapiens, UniProt Q00526). In words: Inhibition of CDK3/cyclin E1 (unknown origin) by ADP-Glo kinase assay. The format is protein-complex assay.
Chain of CDK3/Cyclin E (P24864 whole entry): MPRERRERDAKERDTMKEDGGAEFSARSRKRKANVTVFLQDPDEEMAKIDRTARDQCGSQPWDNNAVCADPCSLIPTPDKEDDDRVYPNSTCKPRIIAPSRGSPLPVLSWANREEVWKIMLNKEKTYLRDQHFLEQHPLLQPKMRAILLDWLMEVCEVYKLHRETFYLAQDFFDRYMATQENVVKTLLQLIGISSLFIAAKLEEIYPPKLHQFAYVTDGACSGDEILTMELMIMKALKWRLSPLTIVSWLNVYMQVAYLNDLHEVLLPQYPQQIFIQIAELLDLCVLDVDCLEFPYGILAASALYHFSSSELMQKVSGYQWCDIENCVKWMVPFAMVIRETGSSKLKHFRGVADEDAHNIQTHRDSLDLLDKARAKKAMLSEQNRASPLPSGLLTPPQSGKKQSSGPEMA
Chain of CDK3/Cyclin E (Q00526 whole entry): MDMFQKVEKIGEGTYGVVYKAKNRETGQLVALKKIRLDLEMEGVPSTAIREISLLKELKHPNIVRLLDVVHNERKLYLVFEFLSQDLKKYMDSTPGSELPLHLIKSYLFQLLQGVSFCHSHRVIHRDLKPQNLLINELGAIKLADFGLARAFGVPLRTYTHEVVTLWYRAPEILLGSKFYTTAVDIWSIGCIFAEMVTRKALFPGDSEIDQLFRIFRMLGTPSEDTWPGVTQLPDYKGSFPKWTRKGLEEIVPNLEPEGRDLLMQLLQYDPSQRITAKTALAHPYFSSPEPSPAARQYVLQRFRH
Data set [3] in a line: Inhibition of MCM2 (unknown origin). Further details: species or system Homo sapiens.
In data set [4] the target is T1, Cell division cycle 7-related protein kinase (Homo sapiens, UniProt O00311). In words: Inhibition of CDC7 (unknown origin).
T1 sequence (O00311 whole entry): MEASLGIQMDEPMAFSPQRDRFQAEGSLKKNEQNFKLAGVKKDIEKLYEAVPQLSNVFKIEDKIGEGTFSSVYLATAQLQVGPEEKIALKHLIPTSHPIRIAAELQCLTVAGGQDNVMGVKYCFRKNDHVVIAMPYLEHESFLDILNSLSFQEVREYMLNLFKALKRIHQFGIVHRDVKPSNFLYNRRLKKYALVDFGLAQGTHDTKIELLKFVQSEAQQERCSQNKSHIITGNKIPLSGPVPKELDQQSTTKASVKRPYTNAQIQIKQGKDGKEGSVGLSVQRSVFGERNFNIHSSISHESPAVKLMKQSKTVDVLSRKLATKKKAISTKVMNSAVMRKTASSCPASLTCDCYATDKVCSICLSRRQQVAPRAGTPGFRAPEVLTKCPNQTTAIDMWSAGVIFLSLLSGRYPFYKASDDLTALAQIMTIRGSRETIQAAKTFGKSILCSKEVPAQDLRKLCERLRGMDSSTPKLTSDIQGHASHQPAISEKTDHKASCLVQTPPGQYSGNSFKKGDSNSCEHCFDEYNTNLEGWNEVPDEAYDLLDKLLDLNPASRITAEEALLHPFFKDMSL
Data set [5] deals with Cyclin-dependent kinase 2/cyclin A (Homo sapiens, UniProt P24941). In words: Inhibition of CDK2/Cyclin A (unknown origin). It counts as protein-complex assay.
The target in the next data set is Casein kinase 2 (Homo sapiens, UniProt P67870+P68400+P19784+Q8NEV1). Description: Inhibition of CK2 (unknown origin). The format is protein assay.
Data set [6] addresses T1, Cell division cycle 7-related protein kinase. In words: Inhibition of GST full length human CDC7 (1 to 574 residues) expressed in baculovirus expression system.

As a reminder, the IC50 is the concentration at which inhibition is half-maximal. Read a high IC50 as lower potency.

`Nc1nccc(-n2ccc3cnccc32)n1`: the CLH turned out to be 62 µL/min/µg in data set [1] and 101 µL/min/µg in data set [2].
With `Cc1n[nH]cc1-c1cc2nc([C@@H]3CCCCN3)[nH]c(=O)c2s1`, the IC50 against CDK3/Cyclin E worked out at 6.5 µM; in data set [3] it was 0.036 µM.
In the case of `Nc1nccc(-n2cc(-c3cccnc3Cl)c3cnccc32)n1`, the CLH in data set [1] amounted to 21 µL/min/µg; in data set [2] it was 72 µL/min/µg.
Regarding `Cc1[nH]c(=O)c2sc(-c3cn[nH]c3)c3c2c1CCCO3`, in data set [4], the IC50 was < 1 µM.
In data set [5], `NC(=O)c1cc(-c2ccncc2)[nH]c1-c1ccccc1` displayed an IC50 of 1.1 µM.
Molecule `O=c1[nH]c([C@@H]2CCCN2)nc2c1oc1ccc(Cl)cc12` showed a half-maximal inhibitory concentration (IC50) on Casein kinase 2 of 0.215 µM.
`Cn1nccc1-c1nc(C2CCOCC2)c(Cl)c(=O)[nH]1` had an IC50 in data set [6] of 0.0912 µM.
As for `Nc1nccc(-n2ccc3ncccc32)n1`, the CLH was found to be 60 µL/min/µg in data set [1] and 50 µL/min/µg in data set [2].
Take `N[C@H](c1nc2cc(-c3ccncc3F)sc2c(=O)[nH]1)C1CC1`: the IC50 in data set [4] was < 1 µM.
For `Nc1nccc(-n2cc(-c3cccnc3Cl)c3cnc(Cl)cc32)n1`, the CLH worked out at 30 µL/min/µg in data set [1] and 102 µL/min/µg in data set [2].
For `O=c1[nH]c([C@@H]2CC3CCN2CC3)nc2c3c(sc12)-c1c[nH]nc1CCC3`, half-maximal inhibition in data set [4] (IC50) required 3.02 µM.
The molecule `O=c1[nH]cnc2c1oc1ccc(Br)cc12` yielded an IC50 against Casein kinase 2 of 1.5 µM.
